Target: T1, human IsK protein (Homo sapiens, UniProt P15382)
T1 construct: only IsK injected, pore from oocyte's endogenous KCNQ1; two-microelectrode voltage clamp
Test: Inhibition of IsK current in Xenopus oocytes expressing human IsK protein (two-microelectrode voltage-clamp)
Type: cell-based
Conditions: human IsK expressed in Xenopus oocytes; activated to -10 mV, 15 s voltage jumps, room temperature; Hill equation

T1 sequence (P70057 whole entry partner): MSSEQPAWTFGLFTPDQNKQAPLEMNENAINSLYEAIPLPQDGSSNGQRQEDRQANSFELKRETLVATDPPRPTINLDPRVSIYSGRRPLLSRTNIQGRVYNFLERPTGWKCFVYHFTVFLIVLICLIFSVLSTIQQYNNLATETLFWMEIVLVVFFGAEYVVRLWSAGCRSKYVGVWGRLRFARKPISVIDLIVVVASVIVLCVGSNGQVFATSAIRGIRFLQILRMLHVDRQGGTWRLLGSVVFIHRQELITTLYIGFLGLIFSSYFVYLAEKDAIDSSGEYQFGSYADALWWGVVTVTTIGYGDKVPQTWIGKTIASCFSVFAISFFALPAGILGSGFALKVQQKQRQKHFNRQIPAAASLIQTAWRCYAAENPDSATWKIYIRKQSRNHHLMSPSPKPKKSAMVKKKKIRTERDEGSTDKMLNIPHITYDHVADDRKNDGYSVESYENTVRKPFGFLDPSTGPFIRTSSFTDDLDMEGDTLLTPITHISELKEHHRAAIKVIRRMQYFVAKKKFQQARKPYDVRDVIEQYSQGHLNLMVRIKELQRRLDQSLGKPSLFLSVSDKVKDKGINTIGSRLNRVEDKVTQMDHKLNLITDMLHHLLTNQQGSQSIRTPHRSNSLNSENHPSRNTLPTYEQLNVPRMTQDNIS

SMILES | IC50 [nM]
CCOCCCOc1ccc2c(c1)C(N(C)S(C)(=O)=O)CC(C)(C)O2 (stereo not drawn) [Example 15, N-[6-(3-Ethoxypropoxy)-2,2-dimethylchroman-4-yl]-N-methylmethanesulfonamide] | 320
CCN(C1CC(C)(C)Oc2ccc(OCCO)cc21)S(C)(=O)=O (stereo not drawn) [Example 8, N-Ethyl-N-[6-(2-hydroxyethoxy)-2,2-dimethylchroman-4-yi]-methanesulfonamide] | 7430
CCOCCCOc1ccc2c(c1)C(N(CC)S(C)(=O)=O)CC(C)(C)O2 (stereo not drawn) [Example 1, N-[6-(3-Ethoxypropoxy)-2,2-dimethylchroman-4-yl]-N-ethyl-methanesulfonamide] | 430
CCCN(C1CC(C)(C)Oc2ccc(OCC(=O)NCCCOCC)cc21)S(=O)(=O)CC (stereo not drawn) [Example 23, 2-[4-(Ethanesulfonyl-(1-propyl)amino)-2,2-dimethylchroman-6-yloxy]-N-(3-ethoxypropyl)acetamide] | 2490
CCS(=O)(=O)N(C)C1CC(C)(C)Oc2ccc(-c3cccs3)cc21 (stereo not drawn) [Example 26, Ethanesulfonic acid (2,2-dimethyl-6-thiophen-2-yl-chroman-4-yl)methylamide] | 380
CCOCCOc1ccc2c(c1)C(N(CCOC)S(C)(=O)=O)CC(C)(C)O2 (stereo not drawn) [Example 17, N-[6-(2-Ethoxyethoxy)-2,2-dimethylchroman-4-yl]-N-(2-methoxyethyl)methanesulfonamide] | ~1000
CCN(C1CC(C)(C)Oc2ccc(OCc3cc(OC)ccn3)cc21)S(C)(=O)=O (stereo not drawn) [Example 10, N-Ethyl--N-[6-(((4-methoxypyridin-2-yl)methyl)oxy)-2,2-dimethylchroman-4-yl]methanesulfonamide] | ~8000
CCN(C1CC(C)(C)Oc2ccc(OCCCCCO)cc21)S(C)(=O)=O (stereo not drawn) [Example 2, N-Ethyl-N-[6-(5-hydroxypentyloxy)-2,2-dimethylchroman-4-yl]methanesulfonamide] | 1710
CCOCCOc1ccc2c(c1)C(N(CC)S(C)(=O)=O)CC(C)(C)O2 (stereo not drawn) [Example 9, N-[6-(2-Ethoxyethoxy)-2,2-dimethylchroman-4-yl]-N-ethylmethanesulfonamide] | 690
CCN(C1CC(C)(C)Oc2ccc(OCCCCC(=O)NCCOC)cc21)S(C)(=O)=O (stereo not drawn) [Example 3, 5-[4-(Ethylmethanesulfonylamino)-2,2-dimethylchroman-6-yloxy]pentanoic acid (2-methoxyethyl)amide] | 6360
CCOCCCOc1ccc2c(c1)C(N(CCOC)S(C)(=O)=O)CC(C)(C)O2 (stereo not drawn) [Example 21, N-[6-(3-Ethoxypropoxy)-2,2-dimethylchroman-4-yl]-N-(2-methoxyethyl)methanesulfonamide] | 1740
CCCN(C1CC(C)(C)Oc2ccc(OCC(=O)NCCOC)cc21)S(=O)(=O)CC (stereo not drawn) [Example 22, 2-[4-(Ethanesulfonyl-(1-propyl)amino)-2,2-dimethylchroman-6-yloxy]-N-(2-methoxyethyl)acetamide] | ~3000
